Test results as given in US20230144399A1, “QUINOLINE COMPOUNDS FOR THE TREATMENT AND PROPHYLAXIS OF HEPATITIS B VIRUS DISEASE” (Hoffmann-La Roche Inc., priority 2017, published 2023).

Tests used:
[1] = system: HBV cccDNA (HBeAg level) in HepDES19 cells; assay: Engineered HepDES19 primary screen assay (HBeAg as surrogate marker for cccDNA); type: cell-based; conditions: Hepatitis B virus, HepDES19, 120 h, read-out: IC50 (HBeAg level, HepDES19 primary screen assay)
Description: The assay was employed to screen for novel cccDNA inhibitors. HepDES19 is a cccDNA-producing cell line. In this cell line, HBeAg in the cell culture supernatant as surrogate marker, as HBeAg production depends on cccDNA level and activity. HepDES19 is an engineered cell line which contains a 1.1 unit length HBV genome, and pgRNA transcription from the transgene is controlled by Tetracycline (Tet). In the absence of Tet, pgRNA transcription will be induced, but HBV e antigen (HBeAg) could not be produced from this pgRNA due to very short leader sequence before the HBeAg start codon and the start codon is disrupted. Only after cccDNA is formed, the missing leader sequence and start codon mutation would be restored from the 3′-terminal redundancy of pgRNA, and then HBeAg could be synthesized. Therefore, HBeAg could be used as a surrogate marker for cccDNA (Zhou, T. et al., Antiviral Res.(2006), 72(2), 116-124; Guo, H. et al., J. Virol. (2007), 81(22), 12472-12484).
HepDES19 cells were seeded at 2×10^6 cells per T150 flask and cultured with the culture medium (Dulbecco's Modified Eagle Medium: Nutrient Mixture F-12 [DMEM-F12, Gibco Cat. 11320-82], 10% Fetal Bovine Serum [FBS, Clontech Cat. 631101], 0.1 mM Non-Essential Amino Acids Solution [NEAA, Gibco Cat. 11140-050], 50 μg/mL Penicillin-Streptomycin [PS, Invitrogen Cat. 15140-163], 500 μg/mL Geneticin [G418, Invitrogen Cat. 10131-027]) containing 3 μg/mL Tet (Sigma, Cat. 87128) for 5 days. Cells were then seeded at 4×10^6 cells per T150 in the same culture medium as described above in the absence of Tet for 8 days. Cells were then harvested and frozen at density of 2×10^6 cells per mL. For compound testing, the frozen cells were thawed and seeded into 96-well plates at a density of 6×10^4 cells per well. At 24 hrs after seeding, half log serial dilutions of compounds made with Dimethyl sulfoxide (DMSO, Sigma, Cat. D2650) were further diluted with the same culture medium as described above before they were added to the cells to reach desired final compound concentrations and 1% DMSO concentration. Plates were then incubated at 37° C. for another 5 days before measurement of HBeAg level and cell viability. Intracellular HBeAg level were measured with enzyme-linked immunosorbent assay (ELISA) kit (Shanghai Kehua Diagnostic Medical Products Co., Ltd). Cell viability was assessed using Cell Counting Kit-8 (Donjindo, Cat. CK04-20). IC50 values were derived from the dose-response curve using 4 parameter logistic curve fit method.
The compounds of the present invention were tested for their capacity to inhibit extracellular HBeAg level as described herein.

[2] = system: HBV (extracellular HBsAg) in HBV-infected PHH; assay: Cryopreserved primary human hepatocytes (PHH) HBV infection assay; type: cell-based; conditions: Hepatitis B virus, Hepatocyte, 216 h, 9 days post-compound treatment, extracellular HBsAg by CLIA
Method: This assay is used to confirm the anti-HBV effect of the compounds in HBV PHH infection assay. Cryopreserved PHH (BioreclamationIVT, Lot YJM) was thawed at 37° C. and gently transferred into pre-warmed InVitroGRO HT medium (BioreclamationIVT, Cat. S03317). The mixture was centrifuged at 70 relative centrifugal force (RCF) for 3 minutes at RT, and the supernatant was discarded. Pre-warmed InVitroGRO CP medium (BioreclamationIVT, Cat #S03316) was added to the cell pellet to gently re-suspend cells. The cells were seeded at the density of 5.8×10^4 cells per well to collagen I coated 96-well plate (Gibco, Cat. A1142803) with the InVitroGRO CP medium. All plates were incubated at 37° C. with 5% CO2 and 85% humidity.
At 20 hours after plating, the medium was changed to PHH culture medium (Dulbecco's Modified Eagle Medium (DMEM)/F12 (1:1) (Gibco, Cat. 11320-033), 10% fetal bovine serum (Gibco Cat. 10099141), 100 U/mL penicillin, 100 μg/mL streptomycin (Gibco, Cat. 151401-122), 5 ng/mL human epidermal growth factor (Invitrogen Cat. PHG0311L), 20 ng/mL dexamethasone (Sigma, Cat. D4902) and 250 ng/mL human recombinant insulin (Gibco, Cat. 12585-014)). And the cells were incubated at 37° C. with 5% CO2 and 85% humidity for 4 hours. The medium was then changed to pre-warmed PHH culture medium containing 4% polyethylene glycol (PEG) MW8000 (Sigma, Cat. P1458-50ML) and 1% DMSO (Sigma, Cat. D2650). 5.8×10^6 genomic equivalents of HBV were added into the medium.
At 24 hours post-infection, the cells were gently washed with PBS and refreshed with PHH culture medium supplemented with 1% DMSO, and 0.25 mg/mL Matrix gel (Corning, Cat. 356237) at 200 μL per well. All plates were immediately placed in at 37° C. CO2 incubator. 24 hours later, serial dilutions of compounds made with DMSO were further diluted with the same culture medium (PHH culture medium supplemented with 1% DMSO and 0.25 mg/mL Matrix gel as described above) before they were added to the cells to reach desired final compound concentrations and 1% DMSO concentration. The medium containing the compounds were refreshed every three days.
At 9 days post-compound treatment, extracellular HBsAg level were measured with Chemiluminescence Immuno Assay (CLIA) kit (Autobio, HBsAg Quantitative CLIA). Extracellular HBV DNA was extracted by MagNA Pure 96 system (Roche) and then determined by quantitative PCR with the following primers and probe: […]
HBsAg IC50 and HBV DNA IC50 values were derived from the dose-response curve using 4 parameter logistic curve fit method.

Row | SMILES | IC50 [1] [µM] | IC50 [2] [µM]
1 | O=C(O)COCCOc1ccc(-c2ccc3cccc(Cl)c3n2)cc1C(F)(F)F [Example 6, 2-[2-[4-(8-chloro-2-quinolyl)-2-(trifluoromethyl)phenoxy]ethoxy]acetic acid] | 0.537 | 8.35
2 | OCCOc1ccc(-c2ccc3cccc(Cl)c3n2)cc1C(F)(F)F [Example 4, 2-[4-(8-chloro-2-quinolyl)-2-(trifluoromethyl)phenoxy]ethanol] | 2.12 | 6.77
3 | Cc1cc(-c2cccc(Br)c2)nc2cc(C(F)(F)F)ccc12 [Example 11, 2-(3-bromophenyl)-4-methyl-7-(trifluoromethyl)quinoline] | 2.07 | 1.66
4 | O=C(O)C1CC(OCCOc2cc3c(Cl)ccc(Cl)c3nc2-c2ccc(O)cc2)C1 (stereo not shown) [Example 16, 3-[2-[[5,8-dichloro-2-(4-hydroxyphenyl)-3-quinolyl]oxy]ethoxy]cyclobutanecarboxlic acid] | 3.62 | 
5 | O=C(O)COCCOc1ccc(-c2ccc3cccc(Cl)c3n2)cc1 [Example 2, 2-[2-[4-(8-chloro-2-quinolyl)phenoxy]ethoxy]acetic acid] | 0.233 | 0.97
6 | O=C(O)COCCOc1ccc(-c2cc(C(F)(F)F)c3cccc(Cl)c3n2)cc1 [Example 13, 2-[2-[4-[8-chloro-4-(trifluoromethyl)-2-quinolyl]phenoxy]ethoxy]acetic acid] | 1.67 | 5.5
7 | COC(=O)[C@H]1C[C@@H](OCCOc2ccc(-c3ccc4ccc(C(F)(F)F)cc4n3)cc2)C1 [Example 9, Cis-methyl 3-[2-[4-[7-(trifluoromethyl)-2-quinolyl]phenoxy]ethoxy]cyclobutanecarboxylate] | 17.8 | 
8 | O=C(O)C1CC(OCCOc2ccc(-c3cc(C(F)(F)F)c4cccc(Cl)c4n3)cc2)C1 (stereo not shown) [Example 12, 3-[2-[4-[8-chloro-4-(trifluoromethyl)-2-quinolyl]phenoxy]ethoxy]cyclobutanecarboxylic acid] | 0.515 | 3.31
9 | O=C(O)[C@H]1C[C@@H](OCCOc2ccc(-c3ccc4cccc(Cl)c4n3)cc2C(F)(F)F)C1 [Example 5, Cis-3-[2-[4-(8-chloro-2-quinolyl)-2-(trifluoromethyl)phenoxy]ethoxy]cyclobutanecarboxylic acid] | 3.91 | 2.95
10 | COc1cc(-c2ccc(OCc3cccc(C(=O)O)c3)cc2)nc2c(Cl)cccc12 [Example 14, 3-[[4-(8-chloro-4-methoxy-2-quinolyl)phenoxy]methyl]benzoic acid] | 1.85 | 
11 | OCCOc1ccc(-c2ccc3ccc(C(F)(F)F)cc3n2)cc1 [Example 8, 2-[4-[7-(trifluoromethyl)-2-quinolyl]phenoxy]ethanol] | 18.5 | 
12 | O=C(O)[C@H]1C[C@@H](OCCOc2ccc(-c3ccc4cccc(Cl)c4n3)cc2)C1 [Example 1, Cis-3-[2-[4-(8-chloro-2-quinolyl)phenoxy]ethoxy]cyclobutanecarboxylic acid] | 0.008 | 0.015
13 | O=C(O)c1cc(-c2cccc(Br)c2)nc2cc(C(F)(F)F)ccc12 [Example 10, 2-(3-bromophenyl)-7-(trifluoromethyl)quinoline-4-carboxylic acid] | 19.5 | 
14 | N#Cc1cc(OCCO[C@H]2C[C@@H](C(=O)O)C2)ccc1-c1ccc2cccc(Cl)c2n1 [Example 7, Cis-3-[2-[4-(8-chloro-2-quinolyl)-3-cyano-phenoxy]ethoxy]cyclobutanecarboxylic acid] | 18.4 | 
15 | COc1ccc(-c2ccc3cccc(Cl)c3n2)cc1C(F)(F)F [Example 3, 8-chloro-2-[4-methoxy-3-(trifluoromethyl)phenyl]quinoline] | 0.141 | 11.3
16 | COc1cc2cccc(Cl)c2nc1-c1ccc(OCCO[C@H]2C[C@@H](C(=O)O)C2)cc1 [Example 15, Cis-3-[2-[4-(8-chloro-3-methoxy-2-quinolyl)phenoxy]ethoxy]cyclobutanecarboxylic acid] | 2.53 | 
